Assays:
Sprague-Dawley rats = assay: Maximal Electroshock Assay (Rat); assay type: in vivo; conditions: rat MES, 0.5 h and 4 h pretreatment timepoints
Method: Male, Sprague-Dawley rats (approx. 100 g body weight) were prescreened for tonic seizure susceptibility prior to drug testing. […] Protection was defined by the absence of a tonic extensor seizure in the animal within 20 s of application of the electrical stimulus, which typically occurred in all vehicle pretreated animals. Animals received only one electroshock on the drug test day and so separate animals were used for the 0.5 h and 4 h timepoints. All drugs were administered in multiple doses.

CD-1 mice = assay: Maximal Electroshock Assay (Mouse); assay type: in vivo; conditions: mouse MES, 1 h and 4 h pretreatment timepoints
Method: Male, CD-1 mice (20-30 g body weight) were orally pretreated with test compound or vehicle control, and either at 1 h or 4 h post dose a maximal electroshock (45 mA amplitude, 0.2 s duration, 60 Hz) was applied by corneal electrodes. […] Animals received only one electroshock and so separate animals were used for the 1 h and 4 h timepoints. All drugs were administered in multiple doses.

SNI rats = assay: Spared nerve injury (SNI) model, mechanical allodynia; assay type: in vivo, rat; conditions: 30 mg/kg, i.p.
Method: The compounds were tested for their efficacy in reducing mechanical allodynia and cold allodynia in the spared nerve injury (SNI) model of chronic neuropathic pain. In this model, the left sciatic nerve of the rat is exposed under anesthesia. Two of the branches of the sciatic nerve viz. the common peroneal and tibial nerve are ligated and sectioned. The third branch (sural nerve) is left intact. The animals were allowed a post-operative recovery period of 7 days before they were subjected to any test.
The presence of mechanical allodynia was assessed using the Dynamic Plantar Aesthesiometer (Ugo Basile, Italy) which is a modified version of the Von Frey Hair test. In this, a test filament is positioned below the animal's hind paw and the unit is activated which causes the filament to move up and touch the plantar surface of the hind paw. Increasing force is applied to the paw via the filament. […] The cut-off force is set at 50 g. The tests were done on both the non-injured (control) and the injured (SNI) paw.
Testing of compounds was done after 21 days post-operatively. After initial basal readings were taken, the test compound or the vehicle was administered (10 ml/kg) either intraperitoneally (30 mg/kg) or orally (60 mg/kg). The readings were taken again 30, 60 and 180 min after the compound/vehicle administration.

`CC(=O)N[C@H](COC(F)F)C(=O)NCc1ccc(F)cc1` gave a melting point of 162.7 °C.
In the case of `CC(=O)NC(COC(F)F)C(=O)NCc1ccc(F)cc1` (centres unmarked) [Compound 4], the duration of action (Sprague-Dawley rats) is reported as “longer than Lacosamide” and the duration of action (CD-1 mice) is reported as “longer than Lacosamide”.
For `CC(=O)N[C@H](COC(F)F)C(=O)NCc1ccc(Cl)cc1` [Compound 20, (2R)-2-(acetylamino)-N-(4-chlorobenzyl)-3-(difluoromethoxy)propanamide], the “withdrawal threshold, Post Admin 60 min” value (SNI rats) was 25.3 ± 3.2 g, the duration of action (Sprague-Dawley rats) was “longer than Lacosamide” and the duration of action (CD-1 mice) was “longer than Lacosamide”.
In the case of `CC(=O)NC(COC(F)F)C(=O)NCc1ccccc1` (centres unmarked) [Compound 3, 2-(Acetylamino)-N-benzyl-3-(difluoro-methoxy)propanamide], the duration of action (Sprague-Dawley rats) is reported as “longer than Lacosamide” and the duration of action (CD-1 mice) is reported as “longer than Lacosamide”.
